# Earlier results as cited in US20070154432A1, “Compositions and methods for hair growth” (priority 2005, published 2007).
# Legend:
# 5α-alpha reductase = conditions: individually shown / studies have suggested
# [1] = 200 individual; published in the Federal Register
SMILES,inhibition of 5α-alpha reductase (in words) (5α-alpha reductase),"toxicity, irritation and allergenicity by Schwartz patch test [1]"
"CC/C=C\C/C=C\C/C=C\CCCCCCCC(=O)O [ALA, Alpha Linolenic Acid]",inhibit,
"NC(=O)NC1NC(=O)NC1=O (centres unmarked) [Allantoin, allantoin]",,"nontoxic, nonirritating and non-allergenic"
"CCCCC/C=C\C/C=C\C/C=C\CCCCC(=O)O [GLA, Gamma Linolenic Acid]",inhibit,
"CCCCC/C=C\C/C=C\CCCCCCCC(=O)O [linoleic acid, Linoleic Acid]",inhibit,
[Zn] [zinc],inhibits,
